According to publication PMC12728982, “Multichiral Half-Sandwich Ru(II) and Os(II) Anticancer Complexes Containing a Glutathione Synthesis Inhibitor” (Organometallics, 2025):

Test system: HeLa cervical adenocarcinoma cells
Experiment: Antiproliferative activity, SRB assay
Assay type: cell-based, human
Description: The antiproliferative activity against human A549 lung, IGROV-1 ovarian, and HeLa cervical cancer cell lines and MRC5 normal lung fibroblasts was determined by the sulforhodamine B (SRB) assay. […] IGROV-1 is known to be cisplatin-sensitive and subject to hypermutation.
2.8 Mammalian cell culture
The human ovarian cancer cell line, IGROV-1; the human cervical cancer cell line, HeLa; the human […]; and the human non-cancerous lung fibroblast cell line, MRC5 were cultured in DMEM supplemented with 10% FBS and 100 units/mL of penicillin and 100 µg/mL of streptomycin (1x pen/strep). All cell lines were incubated at 310 K with 5% CO2 and 95% humidity for routine maintenance and during drug treatment.
2.9 Sulforhodamine (SRB) cytotoxicity assay
Cells were seeded at 5 × 10^3 cells per well and incubated at 310 K for 48 h. Stock solutions (200 µM) of the complexes were prepared by dissolving the compound in 5% (v/v) DMSO followed by dilution with DMEM and serial dilutions with DMEM were prepared (0.1 µM-200 µM). The cells were exposed to the drug for 24 h. The drug was then removed, and cells were allowed to recover for 72 h, in drug-free media. Cell viability was then determined by the SRB colorimetric assay. The solubilised dye absorbance was analysed on a microplate reader (Thermo Scientific Multiskan FC with Scanit software 4.1) at 470 nm. Data were normalized using Microsoft Excel, and dose-response curves fitted using Origin 2016. The IC50 values

IC50 (SRB assay, 24 h treatment, 72 h recovery): > 200 µM
Substance: [(p-cymene)Os(L-BSO)Cl] [Os-LBSO]
Activity toward HeLa cervical cancer cells (SRB): inactive
